Test results taken from publication PMC10244669, “Virtual screening–based discovery of AI-2 quorum sensing inhibitors that interact with an allosteric hydrophobic site of LsrK and their functional evaluation” (Frontiers in Chemistry, 2023).
Entries after “also recorded” stand apart in the source; their conditions may differ. Read-outs that look alike come from different tables or passages of the source.

Assays:
LsrK [1] = target: T1, LsrK (Salmonella typhimurium, UniProt Q8ZKQ6); assay: LsrK inhibition assay (Kinase-Glo luminescence); type: biochemical; details: for IC50 / inhibition at 200 µM / Inhibition (%): mean ± SD, n = 3; for inhibition at 200 µM: Table 1, hits at 200 μM with 100 μM ATP; for type of LsrK inhibition: from IC50 values at 50, 100 and 150 μM ATP; for Inhibition (%): Supplementary Table 1, 200 uM compound, * = colour of the compound interferes with luminescence
T1 sequence (Q8ZKQ6 whole entry): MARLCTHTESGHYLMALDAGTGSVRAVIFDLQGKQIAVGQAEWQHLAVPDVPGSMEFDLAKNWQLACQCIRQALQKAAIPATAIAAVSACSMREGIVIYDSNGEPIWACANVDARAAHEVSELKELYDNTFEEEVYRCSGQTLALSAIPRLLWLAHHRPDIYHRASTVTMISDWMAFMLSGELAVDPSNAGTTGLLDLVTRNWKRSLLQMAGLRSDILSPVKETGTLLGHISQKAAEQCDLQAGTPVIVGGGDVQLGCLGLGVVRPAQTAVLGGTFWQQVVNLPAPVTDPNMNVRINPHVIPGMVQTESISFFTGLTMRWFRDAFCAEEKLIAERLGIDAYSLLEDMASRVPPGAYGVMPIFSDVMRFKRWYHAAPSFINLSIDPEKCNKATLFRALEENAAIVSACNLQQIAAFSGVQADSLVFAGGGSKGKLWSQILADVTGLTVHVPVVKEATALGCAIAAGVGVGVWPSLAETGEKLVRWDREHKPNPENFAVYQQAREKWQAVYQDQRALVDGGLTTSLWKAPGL
Description: (§1) To express LsrK with a 6 × His-tag at the C-terminus, the LsrK encoding gene of Salmonella typhimurium was amplified using primers carrying restriction endonuclease sites BamHI and XhoI. The amplified product was cloned into the expression vector pET-28a with a C-terminal 6 × His-tag and transfected into E. coli BL21 (DE3).
This assay was performed as previously described ([Gatta et al., 2019]), and the conditions were optimized. […] 74 purchased compounds were dissolved in dimethyl sulfoxide (20% v/v DMSO in reaction buffer) at a concentration of 2 mM. Briefly, 10 μL DPD, 10 μL LsrK, and 5 μL compound were added to a 96-well plate, and 25 μL ATP or 25 μL reaction buffer was added after 30 min incubation. The plate was incubated for 10 min at 37°C, then 50 μL of kit reagent was added, and the plate was incubated at 37°C for 15 min. The luminescence signal was measured using an Enspire 2300 microplate reader (PerkinElmer). Dose-response tests were carried out to verify the activity of hits chosen by primary screening. (200 μM–6.25 µM) ([Medarametla et al., 2018]). The inhibition percentage of each tested compound was determined as previously described and IC50 was calculated using four logistic parameters.

[2] = test system: AI-2-mediated QS (lsr promoter luminescence, reporter strain WHQ02); assay: Cell-based AI-2-mediated QS interference assay; parameters: species or system E. coli; details: for IC50: Escherichia coli, cell-based QS interference assay, WHQ02, mean ± SD, n = 3; for AI-2 QS inhibitory activity (in words) / maximum AI-2 QS inhibition: 100 to 3.13 μM
Source text: All chemicals were purchased from Sigma-Aldrich (St. Louis, MO, United States) unless otherwise stated. DPD was purchased from the […] ZZBIO Co., LTD. (Shanghai, China). The Kinase-Glo Max Luminescent Kinase Assay Kit was purchased from Promega (Madison, WI, United States). NTA sensor chips were purchased from GE Healthcare (Chicago, IL, United States). All compounds used as potential inhibitors of LsrK were purchased from Topscience Biotechnology Co. Ltd. (Shanghai, China). The QS reporter strain WHQ02 (E. coli BL21 ΔTolC pWHQ01) was donated by Huiqi Wen (Institute of Microbiology and Epidemiology, Academy of Military Sciences, Beijing, China). The plasmid pWHQ01 was constructed by cloning the lsr promoter and the luxCDABE luminescent gene. BamHI and XhoI were purchased from New England Biolabs (Ipswich, MA, United States). pET-28a was purchased from Novagen (Madison, WI, United States). Escherichia coli BL21 (DE3) cells were purchased from TransGen Biotech Co., LTD. (Beijing, China). A Ni-NTA column was purchased from Sangon Biotech (Shanghai, China). Sodium dodecyl sulfate-polyacrylamide gel electrophoresis (SDS-PAGE) and the Bradford Protein Assay Kit were purchased from Thermo Fisher Scientific (Waltham, MA, United States).
(§2) WHQ02 cultured overnight were diluted 1:100 in fresh LB supplemented with 100 μg/mL ampicillin and grown at 30°C and until the logarithmic phase (OD600 = 0.4–0.6). The bacterial culture was centrifuged at 4,000 × g for 5 min, and the pellet was resuspended in fresh LB medium to prepare a suspension of 2 McFarland standard and added to the 96-well plate. In the experimental group, 74 compounds (final concentrations ranging from 100 to 3.125 μM) were added to reach a total volume of 100 µL. In addition, 100 µL LB medium with an equal volume of DMSO (negative control) or 100 µL LB supplemented with 2% glucose and the same volume of DMSO (positive control) were added. Bacteria was cultured at 37°C with shaking for 3 h. The […] of WHQ02 is directly regulated by the lsr promoter, reflecting the strength of QS. The luminescence and OD600 were measured using an Enspire 2300 microplate reader (Perkin Elmer). To further study the effect of compounds on bacterial growth, overnight cultured WHQ02 was diluted 1:1,000 with LB medium and added to 96 well plate. Then, the compounds were added to a 96-well plate (final concentration: 100 µM) and diluted in a gradient. The same volume of DMSO was added to the control group. The plates were incubated at 37°C for 18 h. OD600 values were recorded using an Enspire 2300 microplate reader. The experiment was performed in triplicate.

LsrK [3] = details: Figure 2, cited from earlier work
AI-2 QS = details: Figure 2, ref Gatta et al., cited from earlier work
[4] = test system: WHQ02 (E. coli BL21 ΔTolC pWHQ01); assay: Growth inhibition of the reporter strain (OD600); type: cell-based; details: 100 to 3.13 μM
Description: as §2
The 12 hits showing >60% LsrK inhibition were tested for QS inhibition using cell-based AI-2-mediated QS interference assay, as previously described [Baba et al., 2006]). To ensure that lower luminescence was the result of QS inhibition not the chemical toxicity or antibacterial activity, strain growth inhibition was assessed concurrently. […] Therefore, a parallel experiment to test the MIC of compounds at a low bacterial density was conducted, indirectly reflecting the potential growth inhibition to avoid false positives.

LsrK [5] = target: T1, LsrK; assay: SPR assay; type: binding
Source text: as §1
His-tagged LsrK was immobilized in the NTA sensor chip (GE Healthcare) in Biacore 8 K using a running buffer consisting of 1 × PBS-T and 5% v/v DMSO. Serially diluted small molecules (concentration range: 50 to 1.56 µM) were injected. Intermediate concentration (12.5 µM) was set as a repeat, and 1 × PBS-T with 5% v/v DMSO was set as the control. The association time was set to 120 s; the dissociation time was set to 130 s; and the flow rate was set to 30 μL/min. The resulting data were fitted to the affinity binding model using Biacore Evaluation Software (GE Healthcare).

`Cc1[nH]c(C(=O)N/N=C\c2ccc(O)c(O)c2)c(C)c1C(=O)N/N=C\c1ccc(O)c(O)c1` [5617–0915] showed an IC50 (LsrK [1]; 100 μM ATP, read-out: IC50B) of 79.4 ± 4.55 µM, an inhibition at 200 µM (LsrK [1]) of 71.5 ± 4.33% and an IC50 [2] of over 100 µM.

In the case of `O=C(O)CC(=O)Nc1ccc2nc(N(Cc3ccccc3)C(=O)c3cc(Br)c(Br)[nH]3)sc2c1` [compound 2], the IC50 (LsrK [3]; ref Gatta et al., 2020) is listed as 15 ± 1 µM and the IC50 (AI-2 QS; 2020) is listed as 17 µM.

In the case of `Cn1nc(-c2ccccc2)cc1C1COC2(CCCCC2)O1` (centres unmarked) [compound 6], the IC50 (LsrK [3]; ref Stotani et al., 2019) is given as 119 µM.

In the case of `COC(=O)CSC1=NC(=O)C[C@H](c2ccc(Cl)cc2)[C@H]1C#N` [2188–1861], the IC50 (LsrK [1]; 100 μM ATP, read-out: IC50B) is reported as 129 ± 6.85 µM, the inhibition at 200 µM (LsrK [1]) is reported as 92.1 ± 6.68% and the “AI-2 QS inhibitory activity (in words)” value [2] is reported as “significant QS inhibitory activities”. It also gave an IC50 [2] of 38.4 ± 3.35 µM.

For `C[C@]1(OC(=O)/C=C/c2ccccc2)C[C@@H](O)[C@]2(O)C=CO[C@@H](O[C@@H]3O[C@H](CO)[C@@H](O)[C@H](O)[C@H]3O)[C@@H]21` [compound 4, harpagoside], the IC50 (LsrK [3]; ref Gatta et al., 2019) is listed as 10 µM and the IC50 (AI-2 QS; 2019) is listed as 14 µM.

In the case of `Cc1c(CC(=O)O)c(=O)oc2cc(OCc3ccc(C(=O)O)o3)ccc12` [Y040-9027], the IC50 (LsrK [1]; 100 μM ATP, read-out: IC50B) is reported as 90 ± 5.18 µM, the inhibition at 200 µM (LsrK [1]) is reported as 94.1 ± 6.72% and the IC50 [2] is reported as over 100 µM.

Molecule `O=C(O)CCc1ccc(-c2ccccc2)n1CC(=O)Nc1ccccc1C(F)(F)F` [D135-0149] has an IC50 (LsrK [1]; 50 μM ATP, read-out: IC50A) of 21.8 ± 1.48 µM, an IC50 (LsrK [1]; 100 μM ATP, read-out: IC50B) of 33.5 ± 2.52 µM and an IC50 (LsrK [1]; 150 μM ATP, read-out: IC50C) of 80.1 ± 4.83 µM. For the same molecule, the inhibition at 200 µM (LsrK [1]) was 83.9 ± 6.33%, the “type of LsrK inhibition” value (LsrK [1]) was “ATP-competitive inhibitors” and the maximum growth inhibition [4] was under 40%. The “AI-2 QS inhibitory activity (in words)” value [2] was “significant QS inhibitory activities”, the “maximum AI-2 QS inhibition” value [2] was over 80% and the IC50 [2] was 22.1 ± 1.66 µM.

In the case of `CN(C)C(=O)C1CCCN1Cc1nc2sc(-c3ccccc3)cc2c(=O)[nH]1` (centres unmarked) [Z196022762], the “Inhibition (%)” value (LsrK [1]; 100 μM ATP) is reported as 57.11 ± 2.22%.

In the case of `NC(=O)c1cc(Cc2ccccc2)sc1NC(=O)C1C2CCC(C2)C1C(=O)O` (centres unmarked) [Y205-6768], the IC50 (LsrK [1]; 50 μM ATP, read-out: IC50A) is reported as 8.73 ± 0.5 µM, the IC50 (LsrK [1]; 100 μM ATP, read-out: IC50B) is reported as 16.8 ± 0.76 µM and the IC50 (LsrK [1]; 150 μM ATP, read-out: IC50C) is reported as 26 ± 1.32 µM. For the same molecule, the inhibition at 200 µM (LsrK [1]) was 101 ± 8.39%, the “type of LsrK inhibition” value (LsrK [1]) was “ATP-competitive inhibitors” and the maximum growth inhibition [4] was under 40%. The “AI-2 QS inhibitory activity (in words)” value [2] was “significant QS inhibitory activities”, the “maximum AI-2 QS inhibition” value [2] was over 80% and the IC50 [2] was 11.3 ± 0.7 µM. The Kd (LsrK [5]; His-tagged LsrK on NTA chip, 50 to 1.56 µM, affinity binding model) was 8.49 µM and the “LsrK specific binding (in words)” value (LsrK [5]; SPR) was “specifically bound to LsrK; also recorded: exhibited LsrK specific binding”.

In the case of `O=C(NC(Cc1c[nH]c2ccccc12)C(=O)O)c1ccccc1Cl` (centres unmarked) [Z85881721], the “Inhibition (%)” value (LsrK [1]; 100 μM ATP) is reported as 10.12 ± 8.78%.

In the case of `O=C(O)CCn1c(=O)[nH]c(=O)c2ccccc21` [Z166653136], the “Inhibition (%)” value (LsrK [1]; 100 μM ATP) is reported as 0%.
